Experiment [1] has as its target serotonin transporter (SERT) (Rattus norvegicus (Rat), UniProt P31652). Put plainly: Competition radioligand binding, [3H]Citalopram, rat brain membranes. To be noted: for IC50 / Ki: 5-HT transporter; for Ki: Cheng-Prusoff. An excerpt: (§1) Rat brain (Sprague Dawley, 200-250 g) synaptosomes were isolated from midbrain and hindbrain for serotonin transporter assays, striatum for dopamine transporter assays, and hippocampus plus overlying occipital cortex for norepinephrine transporter assays. Radioligands used were: [^3H]Citalopram 81.4 Ci/mmol (PerkinElmer NET1039250UC; Lot No. 2960876). [^3H]WIN35428 82.8 Ci/mmol (PerkinElmer NET1033250UC; Lot No. 2891473). [^3H]Nisoxetine 79.2 Ci/mmol (PerkinElmer NET1084250UC; Lot No. 2970324). Non-specific compounds used were: Citalopram (Tocris Bioscience 1427). JHW007 (Tocris Bioscience 4351). Nomifensine (Abcam ab146004). Test Compounds for the study were: racemic methylone HCl; (R)-methylone HCl; (S)-methylone HCl.
(§2) For membrane preparations, rat brains were dissected, tissue was added to ice-cold lysis buffer (50 mM Tris HCl; 5 mM MgCl2; 5 mM EDTA; protease inhibitor cocktail) and homogenized. The homogenate was centrifuged at 100×g for 2 minutes and the supernatant divided into polypropylene Eppendorf tubes. The supernatants were centrifuged at 17,000×g for 10 minutes at 4° C. to re-pellet the cell lysate. The pellet was resuspended in fresh wash buffer (50 mM Tris-HCl; 5 mM MgCl2; 5 mM EDTA) and centrifuged a third time at 17,000×g for 10 minutes at 4° C. The pellet was resuspended in wash buffer containing 10% sucrose as a cryoprotectant, divided into aliquots (0.3 mL) and stored at −80° C. A sample of the homogenate was analyzed for protein content using the MERCK® BCA assay. On the day of the assay, the membrane preparation was thawed and the pellet resuspended in final assay buffer.
(§3) Competition binding assays were carried out in 96-well polypropylene plates in a final volume of 250 μL per well. To each well was added 150 μL membranes, 50 μL of test compound, non-specific compound or buffer, and 50 μL radioligand solution in buffer. The plate was incubated at 30° C. for 90 minutes with gentle agitation. The incubation was stopped by vacuum filtration onto presoaked (wash buffer with PEI) GF/C filters using a 96-well FILTERMATE™ harvester, followed by 5 washes with ice-cold wash buffer. Filters were then dried under a warm air stream, sealed in polyethylene, scintillation cocktail added, and the radioactivity counted in a WALLAC® TriLux 1450 MicroBeta counter. For each concentration of drug, non-specific binding was subtracted from total binding to give specific binding. Data was fitted using the non-linear curve fitting routines in PRISM® (Graphpad Software Inc) to determine IC50. Ki was subsequently calculated using the ChengPrusoff equation.

Experiment [2] deals with DAT (Rattus norvegicus (Rat), UniProt P23977). Put plainly: [3H]Dopamine uptake inhibition in rat brain synaptosomes. To be noted: DA. It counts as biochemical. On the procedure: (§4) Materials used were: Neurotransmitters [3H]5-HT (PerkinElmer, NET498001MC) [^3H]Dopamine (PerkinElmer, NET673250UC) [^3H]Norepinephrine (PerkinElmer, NET377250UC); Test Compounds Racemic methylone HCl (Merck, M-140); (R)-methylone HCl (Pisgah Labs); (S)-methylone HCl (Pisgah Labs); Reference Compounds Citalopram (Tocris Bioscience 1427). JHW007 (Tocris Bioscience 4351). Nomifensine (Abcam ab146004).
(§5) Synaptosomes were prepared from Sprague Dawley (200-250 g) rat brain regions (hippocampus for NE, striatum for DA and midbrain for 5-HT) using standard protocols. Tissues were dissected, added to sucrose buffer (0.32 M), homogenized with a dounce-homogenizer and centrifuged at 100×g to remove cells and debris. Supernatant was collected and centrifuged 17,000×g for 10 minutes at 4° C. to pellet the synaptosomes. The pellet was resuspended in fresh assay buffer.
(§6) Uptake assays were carried out in 96-well plates in a final volume of 250 μL per well. To each well was added 150 μL synaptosomes, 50 μL test, non-specific compound or buffer alone. The plate was incubated at 30° C. for 30 minutes with gentle agitation. 50 μL radiolabeled neurotransmitter in buffer was then added to each well to initiate the uptake. The plate was incubated at 30° C. for a further 5 minutes with gentle agitation. The incubation was stopped by vacuum filtration onto presoaked GF/C filters using a 96-well FilterMate™ harvester, followed by 3 washes with ice-cold wash buffer. Filters were then dried under a warm air stream, sealed in polyethylene, scintillation cocktail added, and the radioactivity counted in a Wallac® TriLux 1450 MicroBeta counter.
(§7) For each concentration of drug, non-specific uptake was subtracted from total uptake to give specific uptake. Data was fitted using the non-linear curve fitting routines in Prism® (Graphpad Software Inc) to determine IC50.

The target of experiment [3] is SERT (Rattus norvegicus (Rat), UniProt P31652). The experiment is described as follows: [3H]5-HT uptake inhibition in rat brain synaptosomes. Format: biochemical. On the procedure: as §4, §5, §6, §7
Experiment [4] deals with hKCNQ1/hminK (Homo sapiens (Human), UniProt P51787). The experiment is described as follows: hKCNQ1/hminK Potassium Channel Assay, Qube APC. Format: cell-based. To be noted: KCNQ1/mink, Antagonist mode, test compound. On the procedure:
Electrophysiological assays were conducted to profile three compounds ((R)-methylone, (S)-methylone, or racemic methylone) for activities on the ion channel targets specified below using the Qube electrophysiological platform. Where presented, IC50 values were determined by a non-linear, least squares regression analysis. Reference standards were run as an integral part of each assay to ensure the validity of the results obtained.
Ion Channels tested were Eurofins Panel Part Number: CPROFullQB2DR Voltage-Gated Sodium: HEK-Nav1.5 (Peak), HEK-Nav1.5 (Late, Antagonist) Voltage-Gated Potassium: HEK-Kv4.3/KChIP2, CHO-hERG, CHO-KCNQ1/minK Voltage-Gated Calcium: HEK-Cav1.2 Inward-Rectifying Voltage-Gated Potassium: HEK-Kir2.1.
hKCNQ1/hminK Potassium Channel Assay—Qube APC After whole cell configuration is achieved, the cells are held at −80 mV. KCNQ1/minK currents are evoked by a 1000 ms pulse from −80 mV to 60 mV followed by a ramp from 60 mV to −80 mV over 115 ms with the outward peak currents measured upon depolarization of the cell membrane. This paradigm is delivered once every 15 s to monitor the current amplitude.

The target in experiment [5] is dopamine transporter (DAT) (Rattus norvegicus (Rat), UniProt P23977). Put plainly: Competition radioligand binding, [3H]WIN35428, rat brain membranes. To be noted: for IC50 / Ki: DA transporter; for Ki: Cheng-Prusoff.
Source text: as §1, §2, §3

On to `CN[C@@H](C)C(=O)c1ccc2c(c1)OCO2` [(S)-methylone], for which the IC50 (commonly the concentration that gives 50% inhibition) in experiment [1] stood at 6.52 µM; in experiment [2], 0.634 µM; in experiment [3] it was 0.395 µM; in experiment [5] it was 8.34 µM. Besides, the inhibition constant Ki (commonly the dissociation constant of the complex between target and ligand, obtained from inhibition or displacement) in experiment [1] came out at 3.95 µM; in experiment [5] it was 4.14 µM. The “Estimated IC50” value in experiment [4] is reported as “N/C (N/C indicates observed mean inhibition was <25%)”.

Regarding `CN[C@H](C)C(=O)c1ccc2c(c1)OCO2` [(R)-methylone], the IC50 was found to be 34.7 µM in experiment [1], 3.44 µM in experiment [2], 7.62 µM in experiment [3] and 24.7 µM in experiment [5]. Besides, the Ki in experiment [1] worked out at 21.1 µM; in experiment [5], 12.3 µM. Besides, the “Potency relative to racemic methylone” value in experiment [1] (SERT binding) and in experiment [5] (DAT binding) was “approximately three-fold less potent” each time. Further, the “Estimated IC50” value in experiment [4] is “N/C (N/C indicates observed mean inhibition was <25%)”.

The record behind these values is US20240327372A1, “PREPARATION OF PHENE[…] […] STEREOISOMERS THEREOF AND PRECURSORS THEREOF” (priority 2022, published 2024).
